Results taken from patent publication US9358276B2, “Methods of diagnosing and treating small intestinal bacterial overgrowth (SIBO) and SIBO-related conditions” (Cedars-Sinai Medical Center, priority 1999, dated 2016).

System: SIBO
Experiment: Case: depression with SIBO, neomycin
Type: in vivo, human
Details: one patient
Excerpt: A person presented with bloating, gas, abdominal distention, and cramping for a period of 3 years prior to LBHT. Symptoms of depression first appeared concurrently with the first appearance of bowel symptoms, and were serious enough that psychiatric hospitalization had been considered by their attending psychiatrist. The subject reported feeling very depressed and was convinced that life was not worth living. The subject=s LBHT indicated the presence of a SIBO condition. […] The subject had been prescribed eight different anti-depressant medications, all of which were discontinued as a result of their improvement.

neomycin was tested, and the depression was “completely resolved”.
